{"source": "patent US6656695B2", "about": "“Biomap characterization of biologically active agents” (Bioseek, Inc., priority 2000, dated 2003)", "key": {"HUVEC cells [1]": {"system": "HUVEC cells", "assay": "optimized inflammatory assay combination: HUVEC treated with TNF-α+IFN-γ+IL-1, readout parameters by cell-based ELISA (biomap)", "parameters": "species or system human", "settings": "for activity (alteration of the biomap) in the optimized assay combination: HUVEC, TNF-α+IFN-γ+IL-1, 24 hours, 10 μM NHGA, 200 μM PDTC, 9 μM PD098059, PPM-18 2 μM, AG126 25 μM, p55-Fc 50 ng/ml; for cellular toxicity: either drug alone at higher concentrations (2-fold) than PPM-18 2 μM / AG126 25 μM", "experimental": "Primary human umbilical vein endothelial cells (HUVEC) are used. Other cells that may replace HUVEC in the screen include primary microvascular endothelial cells, aortic or arteriolar endothelial cells or endothelial cell lines such as EAhy926 or E6-[…]-5-2G cells or human telomerase reverse transcriptase-expressing endothelial cells (Simmons, J. Immunol., 148:267, 1992; Rhim, Carcinogenesis 19:673, 1998; Yang, J. Biol. Chem. 274:26141, 1999). 2×10^4 cells/ml are cultured to confluence in EGM-2 (Clonetics). Other media that may replace EGM-2 include EGM (Clonetics) and Ham's F12K medium supplemented with 0.1 mg/ml heparin and 0.03-0.05 mg/ml endothelial cell growth supplement (ECGS) and 10% FBS, or medium M199 (Life Technologies, Inc.) containing 20% fetal bovine serum and 2 ng/ml basic fibroblast growth factor (Jaffe, J. Clin. Invest. 52:2745, 1973; Hoshi, PNAS 81:6413, 1984). The disease environment present in chronic inflammatory diseases, such as Crohn's disease, differs from the normal condition by increased presence of multiple biologically active agents including IL-1, TNF-α, and IFN-γ (Woywodt, 1994; Kakazu, 1999). Other biologically active agents that may be increased in chronic inflammatory disease environments include IL-4, IL-6, IL-8, IL-12, IL-13, IL-18, TGFbeta, and histamine, as well as activated leukocytes and their products (Daig, 1996, Gut 38:216; Woywodt, 1994, Eur. cytokine Netw. 5:387; Kakazu, 1999 Am J. Gastroenterol. 94:2149; Pizarro, 1999, J. Immunol. 162:6829; Monteleone, 1999, J. Immunol. 163:143; […] Enteral Nutr 23:S20; Beck, 1999, […]. Bowel Dis. 5:44). Optimized assay combinations will contain at least two, and preferably three, four or more of these biologically active agents. […] After 24 hours, cultures are washed and evaluated for the presence of the parameters ICAM-1 (1), VCAM-1 (2), E-selectin (3), IL-8 (4), CD31 (5), HLA-DR (6) and MIG (7) by cell-based ELISA as described (Melrose, J. Immunol. 161:2457, 1998). For this, plates are blocked with 1% Blotto for 1 hr, and treated with primary antibodies (obtained from Pharmingen and Becton Dickinson) at 1 ng/ml for 2 hr. After washing, secondary peroxidase-conjugated anti-mouse IgG antibody (Promega) at 1:2500 is applied for 45 min. After washing, TMB substrate (Kierkegaard & Perry) is added and color developed. Development is stopped by addition of H2SO4 and the absorbance at 450 nm (subtracting the background absorbance at 600 nm) is read with a Molecular Dynamics plate reader. The relative expression levels of each parameter are indicated by the OD at 450 nm shown along the y-axis. The mean +/- SD from triplicate samples is shown. […] Confluent cultures of HUVEC cells are treated with TNF-α (5 ng/ml)+IFN-γ (100 ng/ml)+IL-1 (1 ng/ml) in the presence or absence of neutralizing anti-TNF-α or control antibody (Goat anti-IgG). […] In FIG. 3A, the relative expression of each parameter is shown along the y-axis as average value of the OD measured at 450 nm of triplicate samples. The mean +/- SD from triplicate samples are shown. * indicates p<0.05 comparing results obtained with anti-TNF-α to the control. […] A color-coded representation of the biomaps developed from the data is shown. […] J. Physiol. 273(2 Pt 2):[…], 1997), the corticosteroids dexamethasone and prednisolone, echinacea, AA861 (Lee, J. Immunol. 158, 3401, 1997), apigenin ([…], Am. J. Pathol. 147:278, 1995), nordihydroguaiaretic acid (NHGA) (Brennen, Biochem. […] J. Immunol. 27:2172, 1997), pyrrolidine dithiocarbamate (PDTC) (Boyle, Circulation, 98, (19 Suppl):11282, 1998), PPM-18 (Yu, Biochem. […] Biol. Chem. 273:18165, 1998), AG126 (Novogrodsky, Science 264, 1319, 1994), and neutralizing anti-TNF-α antibody. Color-coded representations of the resulting biomaps are shown. Confluent cultures of HUVEC cells are treated with TNF-α (5 ng/ml)+IFN-γ (100 ng/ml)+IL-1 (1 ng/ml) in the presence or absence of agents or buffers at the concentrations indicated in Table 1. […]"}, "HUVEC cells [2]": {"system": "HUVEC cells", "assay": "multiplex (secondary) assay combinations: HUVEC with single pathway activators or media, biomaps by cell-based ELISA", "parameters": "species or system human", "settings": "TNF-α, IFN-γ, IL-1 alone or combined; 20 μM AA861, 10 μM NHGA; FIG. 5", "experimental": "Confluent cultures of HUVEC cells are treated with TNF-α (5 ng/ml), IFN-γ (100 ng/ml), IL-1 (20 ng/ml), the combination of TNF-α+IFN-γ+IL-1, or media (no cytokine) in the presence or absence of neutralizing anti-TNF-α, 20 μM AA861 or 10 μM NHGA. After 24 hours, cultures are washed and evaluated for the cell surface expression of ICAM-1 (1), VCAM-1 (2), E-selectin (3), IL-8 (4), and MIG (5) by cell-based ELISA performed as described in FIG. 1. A color-coded representation of the resulting biomaps derived from the data is shown in FIG. 5, coded as described in FIG. 2B.\nConfirmation is performed by evaluating the test agent in assay combinations that include both physiologic and alternative pathway activators. […] After 24 hours, cultures are washed and evaluated for the cell surface expression of ICAM-1 (1), VCAM-1 (2), E-selectin (3), CD31 (4), and MIG (5) by cell-based ELISA performed as described in FIG. 1. […]\nIn FIG. 7B, confluent cultures of HUVEC cells are treated with TNF-α (5 ng/ml), IFN-γ (100 ng/ml), IL-1 (20 ng/ml), the combination of TNF-α+IFN-γ+IL-1, or media in the presence or absence of p55-Fc. After 24 hours, cultures are washed and evaluated for the cell surface expression of ICAM-1 (1), VCAM-1 (2), E-selectin (3), IL-8 (4), and MIG (5) by cell-based ELISA performed as described in FIG. 1. […]"}}, "data": [{"compound": "N#CC(C#N)=Cc1ccc([N+](=O)[O-])c(O)c1", "note": "[AG126]", "values": [{"measurement": "activity (alteration of the biomap) in the optimized assay combination", "setting": "HUVEC cells [1]", "result": "active compounds"}, {"measurement": "cellular toxicity", "setting": "HUVEC cells [1]", "result": "cellular toxicity"}]}, {"compound": "CC(Cc1ccc(O)c(O)c1)C(C)Cc1ccc(O)c(O)c1", "note": "(centres unmarked) [NHGA, nordihydroguaiaretic acid]", "values": [{"measurement": "activity (alteration of the biomap) in the optimized assay combination", "setting": "HUVEC cells [1]", "result": "altered biomaps"}, {"measurement": "cytokine signaling pathways targeted", "setting": "HUVEC cells [2]", "result": "target multiple cytokine signaling pathways"}]}, {"compound": "COc1cccc(-c2cc(=O)c3ccccc3o2)c1N", "note": "[PD098059]", "values": [{"measurement": "activity (alteration of the biomap) in the optimized assay combination", "setting": "HUVEC cells [1]", "result": "altered biomaps"}]}, {"compound": "S=C(S)N1CCCC1", "note": "[PDTC, pyrrolidine dithiocarbamate]", "values": [{"measurement": "activity (alteration of the biomap) in the optimized assay combination", "setting": "HUVEC cells [1]", "result": "altered biomaps"}]}, {"compound": "O=C(NC1=CC(=O)c2ccccc2C1=O)c1ccccc1", "note": "[PPM-18]", "values": [{"measurement": "activity (alteration of the biomap) in the optimized assay combination", "setting": "HUVEC cells [1]", "result": "active compounds"}, {"measurement": "cellular toxicity", "setting": "HUVEC cells [1]", "result": "cellular toxicity"}]}]}
